# Assay results from ChEMBL document CHEMBL1201862, “PubChem BioAssay data set” (2004).
#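 Assay format: 96-well plates, 48-hour exposure. GI50 is the concentration that inhibits growth by half.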 Calls of active or inactive are those of the source. No stated cut-off is given here; in the data, active = GI50 up to about 1.1 µM and inactive = higher.
# Experiments:
# Assay in all cases: inhibition of tumour cell growth, NCI panel, 48 h
# [1] = system: SN12C
# [2] = system: SR
# [3] = system: SK-OV-3
# [4] = system: K562
# [5] = system: NCI-H460
# [6] = system: SNB-78
# [7] = system: OVCAR-8
# [8] = system: DMS-273
# [9] = system: Malme-3M
# [10] = system: UACC-257
# [11] = system: LXFL 529
# [12] = system: NCI-H226
# [13] = system: U-251
# [14] = system: HOP-18
# [15] = system: SF-268
# [16] = system: NCI-H23
# [17] = system: 786-0
# [18] = system: M14
# [19] = system: SW-620
# [20] = system: UO-31
# [21] = system: SK-MEL-28
# [22] = system: A498
# [23] = system: OVCAR-3
# [24] = system: HT-29
# [25] = system: A549
# [26] = system: M19-MEL
# [27] = system: HCC 2998
# [28] = system: RXF 393
# [29] = system: HOP-62
# [30] = system: SK-MEL-2
# [31] = system: HOP-92
# [32] = system: EKVX
# [33] = system: IGROV-1
# [34] = system: KM-20L2
# [35] = system: RXF 631
# [36] = system: HCT-15
# [37] = system: COLO 205
# [38] = system: ACHN
# [39] = system: KM12
# [40] = system: SK-MEL-5
# [41] = system: OVCAR-5
# [42] = system: HCT-116
# [43] = system: OVCAR-4
# [44] = system: CCRF-CEM
# [45] = system: LOX IMVI
# [46] = system: SF-539
# [47] = system: SNB-75
# [48] = system: RPMI-8226
# [49] = system: DMS-114
# [50] = system: HL-60
# [51] = system: NCI-H522
# [52] = system: SF-295
# [53] = system: SNB-19
# [54] = system: UACC-62
# [55] = system: CAKI-1
# [56] = system: MOLT-4
# [57] = system: TK-10
# [58] = system: DLD-1
smiles,measurement,setting,value
Cc1cccc(C)c1NC(=O)C(=O)Nn1c(NN)nc2ccccc2c1=O,GI50,[1],> 100 µM (inactive)
same,GI50,[2],> 100 µM (inactive)
same,GI50,[3],> 100 µM (inactive)
same,GI50,[4],> 100 µM (inactive)
same,GI50,[5],> 100 µM (inactive)
same,GI50,[6],> 100 µM (inactive)
same,GI50,[7],> 100 µM (inactive)
same,GI50,[8],> 100 µM (inactive)
same,GI50,[9],> 100 µM (inactive)
same,GI50,[10],> 100 µM (inactive)
same,GI50,[11],> 100 µM (inactive)
same,GI50,[12],> 100 µM (inactive)
same,GI50,[13],> 100 µM (inactive)
same,GI50,[14],> 100 µM (inactive)
same,GI50,[15],> 100 µM (inactive)
same,GI50,[16],> 100 µM (inactive)
same,GI50,[17],> 100 µM (inactive)
same,GI50,[18],> 100 µM (inactive)
same,GI50,[19],> 100 µM (inactive)
same,GI50,[20],> 100 µM (inactive)
same,GI50,[21],> 100 µM (inactive)
same,GI50,[22],> 100 µM (inactive)
same,GI50,[23],> 100 µM (inactive)
same,GI50,[24],> 100 µM (inactive)
same,GI50,[25],> 100 µM (inactive)
same,GI50,[26],> 100 µM (inactive)
same,GI50,[27],> 100 µM (inactive)
same,GI50,[28],> 100 µM (inactive)
same,GI50,[29],> 100 µM (inactive)
same,GI50,[30],> 100 µM (inactive)
same,GI50,[31],> 100 µM (inactive)
same,GI50,[32],> 100 µM (inactive)
same,GI50,[33],> 100 µM (inactive)
same,GI50,[34],> 100 µM (inactive)
same,GI50,[35],> 100 µM (inactive)
same,GI50,[36],> 100 µM
same,GI50,[37],> 100 µM (inactive)
same,GI50,[38],> 100 µM (inactive)
same,GI50,[39],> 100 µM (inactive)
same,GI50,[40],> 100 µM (inactive)
same,GI50,[41],> 100 µM (inactive)
same,GI50,[42],> 100 µM (inactive)
same,GI50,[43],> 100 µM (inactive)
same,GI50,[44],> 100 µM (inactive)
same,GI50,[45],> 100 µM (inactive)
same,GI50,[46],> 100 µM (inactive)
same,GI50,[47],> 100 µM (inactive)
same,GI50,[48],> 100 µM (inactive)
same,GI50,[49],> 100 µM (inactive)
same,GI50,[50],> 100 µM (inactive)
same,GI50,[51],> 100 µM (inactive)
same,GI50,[52],> 100 µM (inactive)
same,GI50,[53],> 100 µM (inactive)
same,GI50,[54],> 100 µM (inactive)
same,GI50,[55],> 100 µM (inactive)
same,GI50,[56],> 100 µM (inactive)
same,GI50,[57],> 100 µM (inactive)
Cc1cccc(C(C)C)c1NC(=O)C(=O)CC(=O)c1c(C)[n+]([O-])c2ccccc2[n+]1[O-],GI50,[1],30.6 µM (inactive)
same,GI50,[2],28.2 µM (inactive)
same,GI50,[3],> 100 µM (inactive)
same,GI50,[4],> 100 µM (inactive)
same,GI50,[5],21.5 µM (inactive)
same,GI50,[6],49 µM (inactive)
same,GI50,[7],31.9 µM (inactive)
same,GI50,[8],33.8 µM (inactive)
same,GI50,[9],18.7 µM (inactive)
same,GI50,[10],23.3 µM (inactive)
same,GI50,[11],34 µM (inactive)
same,GI50,[12],> 100 µM (inactive)
same,GI50,[13],34.1 µM (inactive)
same,GI50,[14],96.4 µM (inactive)
same,GI50,[15],30.1 µM (inactive)
same,GI50,[16],18.8 µM (inactive)
same,GI50,[17],49.1 µM (inactive)
same,GI50,[18],27.8 µM (inactive)
same,GI50,[19],33.1 µM (inactive)
same,GI50,[20],> 100 µM (inactive)
same,GI50,[21],36.1 µM (inactive)
same,GI50,[22],> 100 µM (inactive)
same,GI50,[23],3.44 µM (inactive)
same,GI50,[24],34.4 µM (inactive)
same,GI50,[25],36.7 µM (inactive)
same,GI50,[26],19.8 µM (inactive)
same,GI50,[27],34.3 µM (inactive)
same,GI50,[28],44.2 µM (inactive)
same,GI50,[29],> 100 µM (inactive)
same,GI50,[30],29.3 µM (inactive)
same,GI50,[31],67 µM (inactive)
same,GI50,[32],30.7 µM (inactive)
same,GI50,[33],30.2 µM (inactive)
same,GI50,[34],37.6 µM (inactive)
same,GI50,[35],18.1 µM (inactive)
same,GI50,[36],20.9 µM
same,GI50,[37],33.1 µM (inactive)
same,GI50,[38],> 100 µM (inactive)
same,GI50,[39],38.6 µM (inactive)
same,GI50,[40],34 µM (inactive)
same,GI50,[41],45.9 µM (inactive)
same,GI50,[42],32.1 µM (inactive)
same,GI50,[43],25.4 µM (inactive)
same,GI50,[44],32.2 µM (inactive)
same,GI50,[45],23 µM (inactive)
same,GI50,[46],36.9 µM (inactive)
same,GI50,[47],28.5 µM (inactive)
same,GI50,[48],22.2 µM (inactive)
same,GI50,[49],16.5 µM (inactive)
same,GI50,[50],41.2 µM (inactive)
same,GI50,[51],21.9 µM (inactive)
same,GI50,[52],49.1 µM (inactive)
same,GI50,[53],31.8 µM (inactive)
same,GI50,[54],21.5 µM (inactive)
same,GI50,[55],25.6 µM (inactive)
same,GI50,[56],21.5 µM (inactive)
same,GI50,[57],> 100 µM (inactive)
NS(=O)(=O)c1cc2c(cc1Cl)NC(/C(=N/NC(=O)c1ccncc1)C1C(=O)NC(=O)NC1=O)=NS2(=O)=O,GI50,[3],> 100 µM (inactive)
same,GI50,[4],> 100 µM (inactive)
same,GI50,[5],> 100 µM (inactive)
same,GI50,[6],> 100 µM (inactive)
same,GI50,[7],> 100 µM (inactive)
same,GI50,[8],> 100 µM (inactive)
same,GI50,[9],> 100 µM (inactive)
same,GI50,[10],> 100 µM (inactive)
same,GI50,[11],> 100 µM (inactive)
same,GI50,[13],> 100 µM (inactive)
same,GI50,[17],> 100 µM (inactive)
same,GI50,[18],> 100 µM (inactive)
same,GI50,[19],> 100 µM (inactive)
same,GI50,[20],95.3 µM (inactive)
same,GI50,[22],> 100 µM (inactive)
same,GI50,[23],> 100 µM (inactive)
same,GI50,[25],> 100 µM (inactive)
same,GI50,[26],> 100 µM (inactive)
same,GI50,[27],> 100 µM (inactive)
same,GI50,[29],> 100 µM (inactive)
same,GI50,[30],> 100 µM (inactive)
same,GI50,[31],> 100 µM (inactive)
same,GI50,[32],> 100 µM (inactive)
same,GI50,[33],> 100 µM (inactive)
same,GI50,[34],> 100 µM (inactive)
same,GI50,[35],> 100 µM (inactive)
same,GI50,[36],> 100 µM
same,GI50,[37],> 100 µM (inactive)
same,GI50,[38],> 100 µM (inactive)
same,GI50,[39],> 100 µM (inactive)
same,GI50,[40],> 100 µM (inactive)
same,GI50,[41],> 100 µM (inactive)
same,GI50,[42],55.8 µM (inactive)
same,GI50,[43],> 100 µM (inactive)
same,GI50,[58],> 100 µM (inactive)
same,GI50,[44],> 100 µM (inactive)
same,GI50,[45],> 100 µM (inactive)
same,GI50,[46],> 100 µM (inactive)
same,GI50,[48],> 100 µM (inactive)
same,GI50,[49],> 100 µM (inactive)
same,GI50,[50],> 100 µM (inactive)
same,GI50,[52],> 100 µM (inactive)
same,GI50,[53],83.6 µM (inactive)
same,GI50,[54],> 100 µM (inactive)
same,GI50,[55],> 100 µM (inactive)
same,GI50,[56],> 100 µM (inactive)
same,GI50,[57],> 100 µM (inactive)
